≈ marks a conversion by molar mass, not a printed value. Read-outs that look alike come from different tables or passages of the source.
Tests used:
[1] = target: CpLIP2 lipase (Candida parapsilosis, UniProt Q8NIN8); assay: Inhibition of CpLIP2 hydrolytic activity (ethyl oleate hydrolysis, GC); assay type: biochemical; conditions: for Ki: non-competitive or uncompetitive model
Experimental: The effect of inhibitor concentrations on the hydrolysis reaction rate in standard conditions was assumed to follow either a non-competitive or an uncompetitive model, corresponding to Equation (1):(1) Ki=I/ V0/Vi−1 where V0 and Vi are the initial rates of the reaction without or with inhibitor at concentration I.
Standard CpLIP2 hydrolytic activity measurement. Hydrolysis activities were determined by measuring the initial rates of fatty acid and esters production (µmol·min^−1·mL^−1), using ethyl oleate (C18:1, EE) as substrates. Specific activity is the total activity expressed in µmol·min^−1·mL^−1 in relation to protein concentration (mg·mL^−1). Experiments were conducted as described by. Hydrolysis of ethyl oleate (EO) was performed in aqueous emulsions at 30 °C. This emulsion consisted of 100 µmol·mL^−1 EO emulsified by sonication (Branson Sonifier 250, 20 s, 200 watts, 145 µm amplitude) in an aqueous solution of 20 g·L^−1 poly vinyl alcohol. The reactions of hydrolysis were prepared in glass test tube by adding 100 μL of ethyl oleate emulsion to 800 µL of sodium phosphate buffer 50 mM, pH 6.5; then the solutions were incubated in water bath at 30 °C for 5 min. The reaction was started by the addition of 100 µL of enzyme solution of CpLIP2 with final concentration 3 µg·mL^−1 with activity 2000 U/mL.
The enzyme solution was pre-incubated at 25 °C, with continuous stirring at 350 rpm. Pre-incubation was conducted with 1980 µL CpLIP2 lipase diluted in sodium NaH2PO4/Na2HPO4 phosphate buffer (50 mM, pH 6.5) containing 20 µL absolute EtOH at 2 different times (1 and 30 min). This pre-incubation phase was conducted in closed vials placed during 2 h on a Radleys StarFish Multi-Experiment Workstation. The reaction was conducted for 15 min at 30 °C, and then stopped by adding 950 µL of a mixture of ethanol/sulphuric acid (100:0.8, v/v). After the addition of 50 µL of internal standards (ethanolic solution of pentadecanoic acid and its ethyl and methyl esters, 1 µmol each), lipids were extracted from the mixture with 1 mL of hexane. Samples were then prepared for analyzing esters and free fatty acids by gas chromatography (GC) as follows. Hexane extract (200 µL) was reacted with 25 µL pyridine and 25 µL N-methyl-tri (methylsilyl)-trifluoroacetamide (MSTFA) as silylating agent. Mixtures were incubated in water bath at 50 °C for 20 min, and then samples were ready for analysis. Reaction rates were determined by the analysis of fat composition by capillary gas chromatography after 15 min reaction. It was checked that less than 30% of the total substrate was converted at the end of the 15 min reaction.
A Shimadzu GC 2010 plus gas chromatograph equipped with a flame ionization detector, an automatic sampler (injected volume 0.1 μL) and a split/splitless injector was used for analysis. The capillary column was a DB-5ht (15 m × 0.25 mm, Phenomenex, Le Pecq, France). The helium carrier flow was 1 mL min^−1and the split ratio was 1:50. Temperature conditions were, for reactions with individual substrates: injector 280 °C, detector 290 °C, oven 200–225 °C at 10 °C min^−1 then to 260 °C at 35 °C·min^−1 for ethyl ester (EE) and fatty acid (FA) of C18:1. Calibration curves were realized using emulsions of mixtures of FA and monoesters prepared according to the same protocol, without enzyme and alcohol.
In order to measure the residual lipase activity in the presence of potential inhibitors, the previous method was conducted in the presence and absence of the inhibitors. For each potential inhibitor, the lipase-catalyzed rate of hydrolysis was evaluated after a pre-incubation period between the lipase and the potential inhibitors, which were solubilized in absolute ethanol at 1% of final concentration. The preincubation was performed at 25 °C with continuous stirring at 350 rpm with different concentration of inhibitors (14, 27.5, 55 µM) which represented, respectively 25, 50, 100-fold the final lipase concentration (0.55 µM). […]

[2] = cited from earlier work
[3] = target: pancreatic lipase (PL); parameters: method as in PMID 23363068; conditions: in vitro assay; cited from earlier work
[4] = parameters: method as in PMID 24601218, doi:10.1021/ja00090a032; conditions: cited from earlier work
[5] = target: C. rugosa commercial lipase; parameters: method as in doi:10.1016/j.molcatb.2006.02.012; conditions: cited from earlier work
[6] = estimated after 30 min of pre-incubation
[7] = concentration not stated (14–55 µM tested), up to 30 min pre-incubation
[8] = read-out: inhibition of CpLIP2 activity

CpLIP2 lipase, sequence (Q8NIN8 entry or part of it): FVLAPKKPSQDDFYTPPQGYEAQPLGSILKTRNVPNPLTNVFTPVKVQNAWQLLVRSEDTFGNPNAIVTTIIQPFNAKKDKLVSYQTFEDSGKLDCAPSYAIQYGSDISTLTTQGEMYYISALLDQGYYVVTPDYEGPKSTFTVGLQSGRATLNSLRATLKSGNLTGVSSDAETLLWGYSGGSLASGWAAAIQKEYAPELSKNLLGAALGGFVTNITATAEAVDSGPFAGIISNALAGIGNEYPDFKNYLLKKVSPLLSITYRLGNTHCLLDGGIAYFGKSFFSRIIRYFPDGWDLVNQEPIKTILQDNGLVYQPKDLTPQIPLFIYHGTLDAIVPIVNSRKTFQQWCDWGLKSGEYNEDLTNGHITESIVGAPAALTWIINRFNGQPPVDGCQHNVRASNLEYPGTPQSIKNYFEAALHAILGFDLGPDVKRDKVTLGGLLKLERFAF

In the case of `O=c1c(O)c(-c2ccccc2)oc2cc(O)cc(O)c12` [GAL, galangin], the Ki [1, 6] is reported as > 150 µM, the “inhibition of CpLIP2 activity” value ([1]; after 1 min pre-incubation, concentration not given) is reported as “no inhibition” and the “inhibition of CpLIP2 activity” value [1, 7] is reported as ≤ 20%. The “log10 P of partition between octanol and water phases” value (“log10 P” for short) [2] was 3.9, the “log10D (octanol/water at pH 7.4)” value ([2]; pH 7.4) was 0.7 and the IC50 [3] was 48.2 mg/mL (≈ 178 mM).

In the case of `O=c1c(O)c(-c2ccc(O)cc2)oc2cc(O)cc(O)c12` [KAE, kaempferol], the “inhibition of CpLIP2 activity” value ([1]; 55 µM (100-fold molar excess, highest concentration), pre-incubation time not stated, 55 µM) is reported as 90%, the Ki ([1]; estimated after 1 min of pre-incubation) is reported as 4 µM and the Ki [1, 6] is reported as 6 µM. The inhibition at 27.5 µM ([1]; read-out: inhibition of CpLIP2 activity, 27.5 µM (50-fold lipase concentration), pre-incubation time not stated) was > 80%, the inhibition at 55 µM ([1]; read-out: inhibition of CpLIP2 activity, 55 µM (100-fold molar excess, highest concentration), pre-incubation time not stated) was 92% and the inhibition at 14 µM ([1]; read-out: inhibition of CpLIP2 catalytic activity, 14 µM, within 1 min of pre-incubation) was 80%. The pKa1 [4] was 8.2, the “log10 P” value [2] was 3.5 and the IC50 [5] was 6300 µM.

For `O=c1c(O)c(-c2cc(O)c(O)c(O)c2)oc2cc(O)cc(O)c12` [MYR, myricetin], the “inhibitory effect relative to THL (times lower)” value [1] was “about 100 times”, the Ki [1, 6] was 60 µM and the “inhibition of CpLIP2 activity” value [1, 7] was “about 20%”. For the same compound, the pKa1 [4] was 6.6 and the “log10 P” value [2] was 2.1.

With `O=c1c(O)c(-c2ccc(O)c(O)c2)oc2cc(O)cc(O)c12` [QUE, quercetin] the “inhibitory effect relative to THL (times lower)” value [1] was “about 100 times”, the Ki [1, 6] was 80 µM and the inhibition at 14 µM [1, 8] was 37%. For the same compound, the inhibition at 27.5 µM [1, 8] was 39%, the inhibition at 55 µM [1, 8] was 35% and the “log10 P” value [2] was 2.9.

From publication PMC6719172, “Inhibition of CpLIP2 Lipase Hydrolytic Activity by Four Flavonols (Galangin, Kaempferol, Quercetin, Myricetin) Compared to Orlistat and Their Binding Mechanisms Studied by Quenching of Fluorescence” (Molecules, 2019)
